≈ marks a conversion by molar mass, not a printed value. Read-outs that look alike come from different tables or passages of the source.
Columns and labels:
[1] = molecular target: T1, CYP2C9 (Homo sapiens, UniProt P11712); assay: CYP450 inhibition in HLM, diclofenac probe; format: in vitro ADME; conditions: read-out: IC50 CYP450 2C9
T1 construct: pooled human liver microsomes; tissue BioIVT; host or cells: pooled human liver microsomes
Method: (§1) The CYP450 inhibition was determined by measuring the reaction products of known CYP450 substrates (probes). Probe solutions were prepared by diluting stock solutions with buffer (100 mM Tris-HCl, pH 7.5, and 0.5 mM EDTA) to the final indicated concentrations (Figure 5), and adding 180 µL of pooled human liver microsomes (20 mg/mL) (BioIVT, West Sussex, UK). These probe solutions were dispensed (195 µL) into clear 96-well plates with low evaporation lids (Corning, Turin, Italy) and the plates were prewarmed to 37 °C in a thermomixer (Hamilton, Agrate Brianza, Italy). Next, 5 µL of the test compound or appropriate positive control (Table S4) were added to the wells and the plates were incubated for a further 5 min. Following this, the reactions were started by adding NADPH regenerating solution (50 µL, see previous Section 4.7) to each well. CYP450 mixtures containing phenacetin, rosiglitazone, mephenytoin, atorvastatin, and nifedipine probes were incubated for 10 min at 37 °C, whereas those with midazolam and diclofenac were incubated for 5 min at 37 °C. Aliquots (100 µL) from each reaction mixture were quenched in 200 µL acetonitrile, and the mixtures were sedimented at 3000 ×g for 10 min at 4 °C. The supernatants were diluted in water containing 5 ng/mL Rolipram as an internal standard for LC-MS/MS analysis. All incubations were carried out in triplicate.
(§2) Probe products were analyzed on an API4000 Qtrap mass spectrometer (Applied Biosystems/MDS SCIEX, Monza, Italy) coupled with an Acquity UPLC system (Waters, Milan, Italy) and a CTC-PAL auto-injector (CTC Analytics AG, Zwingen, Switzerland). […] The column temperature was maintained at 60 °C. The injected sample volume was 10 µL, and analytes were eluted at a flow rate of 800 µL/min in a gradient of eluent A (water with 0.1% formic acid) and eluent B (acetonitrile with 0.1% formic acid). […] The analytes were quantified in multiple reaction-monitoring mode. Data were processed, and the percentage control activity was calculated based on a comparison between the ratio of the sample peak area and the peak area.

[2] = system: P. aeruginosa PAO1; assay: Antibacterial growth assay (OD600, 18 h) in LB or M9-acetate; format: cell-based; conditions: Pseudomonas aeruginosa; for inhibition at 200 µM: final optical density; for MIC: PAO1, MIC = lowest concentration inhibiting >75% of growth
Method: Growth assays were carried out using clear, U-bottom, sterile 96-well plates (Thermo Fisher Scientific, Bishop’s Stortford, UK). P. aeruginosa PAO1 overnight cultures were diluted to a starting OD600 of 0.05 in LB medium or M9 medium supplemented with 0.5% acetate. The test compounds were added to the indicated final concentrations, and the plates were covered with gas-permeable adhesive seals (Scientific Laboratory Supplies, Nottingham, UK). Assay controls included 1% DMSO, a positive antibiotic control (ciprofloxacin, 1 µg/mL), and medium-only wells as a control for background absorbance. […]

[3] = molecular target: T2, CYP1A2 (Homo sapiens, UniProt P05177); assay: CYP450 inhibition in HLM, phenacetin probe
T2 sequence (P05177 1-516): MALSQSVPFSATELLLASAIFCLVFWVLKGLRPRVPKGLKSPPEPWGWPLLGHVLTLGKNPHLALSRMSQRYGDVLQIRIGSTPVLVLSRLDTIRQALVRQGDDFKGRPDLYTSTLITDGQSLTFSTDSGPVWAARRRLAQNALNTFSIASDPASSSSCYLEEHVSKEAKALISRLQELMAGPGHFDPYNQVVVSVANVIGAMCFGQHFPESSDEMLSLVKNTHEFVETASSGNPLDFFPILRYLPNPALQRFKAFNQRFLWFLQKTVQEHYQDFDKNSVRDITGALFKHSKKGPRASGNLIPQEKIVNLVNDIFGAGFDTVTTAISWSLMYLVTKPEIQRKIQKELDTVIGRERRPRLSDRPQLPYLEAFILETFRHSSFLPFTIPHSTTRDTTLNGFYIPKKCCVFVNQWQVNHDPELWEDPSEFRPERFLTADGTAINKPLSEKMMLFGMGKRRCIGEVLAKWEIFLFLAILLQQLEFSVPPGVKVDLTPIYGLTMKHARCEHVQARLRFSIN
Method: as §1, §2

[4] = PAO1, LB medium, read-out: PAO1 Growth Inhibition (%) at 200 µM LB
[5] = PAO1, M9-acetate medium, read-out: PAO1 Growth Inhibition (%) at 200 µM M9ac
[6] = M9 medium with 0.5% acetate, read-out: MIC M9ac

T1 sequence (P11712 whole entry): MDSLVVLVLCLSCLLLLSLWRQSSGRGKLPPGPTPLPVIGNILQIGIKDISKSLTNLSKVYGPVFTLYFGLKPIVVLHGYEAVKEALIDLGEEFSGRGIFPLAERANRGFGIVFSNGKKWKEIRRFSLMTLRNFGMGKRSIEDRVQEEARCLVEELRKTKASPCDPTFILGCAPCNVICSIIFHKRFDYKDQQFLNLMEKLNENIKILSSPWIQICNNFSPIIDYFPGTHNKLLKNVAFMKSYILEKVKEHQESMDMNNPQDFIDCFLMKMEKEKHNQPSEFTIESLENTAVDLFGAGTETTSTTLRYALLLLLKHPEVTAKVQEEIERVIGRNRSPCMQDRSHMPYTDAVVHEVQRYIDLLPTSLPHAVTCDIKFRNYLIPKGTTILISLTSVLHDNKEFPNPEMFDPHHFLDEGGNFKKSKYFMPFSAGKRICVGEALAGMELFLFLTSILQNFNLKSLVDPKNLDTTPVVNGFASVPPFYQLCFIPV

| SMILES | IC50 [1] [µM] | inhibition at 200 µM [2, 4] [%] | inhibition at 200 µM [2, 5] [%] | MIC ([2]; LB medium, read-out: MIC LB) [µM] | MIC [2, 6] [µM] | IC50 [3] [µM] |
| --- | --- | --- | --- | --- | --- | --- |
| Nc1cc(Cl)ccn1 [Compound 2-AP, 2-amino-4-chloropyridine, reference compound] | > 100 | 0 | 8 | > 200 | > 200 | > 100 |
| CC(C)(C)OC(=O)/N=C(\NC(=O)OC(C)(C)C)Nc1cc(Cl)ccn1 [SB002] | > 100 | 0 | 100 | > 200 | 1.6 (≈ 0.593 µg/mL) | > 100 |
| CC(C)(C)OC(=O)/N=C(\NC(=O)OC(C)(C)C)Nc1cc(C#N)ccn1 [SB023] | > 100 | 0 | 97 | > 200 | 13.5 (≈ 4.88 µg/mL) | > 100 |
